Values after ≈ are worked out from the molar mass of the structure shown. Where a name gives a salt, the structure may show the parent alone. Each block holds one compound with its values, some of them ahead of it.
Key:
[1] = Release kinetics of pharmaceuticals from PLA-PEO-PLA gels at 25° C.; format: physicochemical; conditions: both polymers (1L and 2D/L), FIG. 7A
[2] = cited from earlier work
physchem = assay: physchem
Excerpt: The use of thermo-reversible triblock gels (Pluronics) as delivery agents for anti-inflammatories (naproxen and indomethacin), local anesthetics, and anti-cancer agents has been studied (Sharma, P. K. and Bhatia, S. R. Effect of Anti-Inflammatories on Pluronic® F127: Micellar Assembly, Gelation and Partitioning. Int J Pharmaceutics, in press, 2004). An ultraviolet spectroscopy technique has been developed to measure rapidly the solubility and micelle-water partition coefficients of hydrophobic pharmaceuticals in micellar gels and has been applied to PLA-PEO-PLA hydrogels. In addition to evaluating partitioning, release kinetics in PLA-PEO-PLA systems have also been studied.

Structure (SMILES): COC(=O)c1ccc(O)cc1 [methyl paraben]
release of methyl paraben from PLA-PEO-PLA gels [1]: majority of the methyl paraben being quickly released within the first five hours

Structure (SMILES): CC1=C(CC(=O)O)c2cc(F)ccc2/C1=C\c1ccc([S+](C)[O-])cc1 (centres unmarked) [sulindac]
time of complete release ([2]; from poly(styrene-divinylbenzene) microspheres): 24 h

Structure (SMILES): CCCCNc1ccc(C(=O)OCCN(C)C)cc1 [tetracaine hydrochloride]
release behavior ([2]; from poly(DL-lactic-co-glycolic acid)): burst release

micelle-water partition coefficient (physchem): 108±8
solubility (physchem; water): 25 µg/mL (≈ 69.9 µM)
Structure (SMILES): COc1ccc2c(c1)c(CC(=O)O)c(C)n2C(=O)c1ccc(Cl)cc1 [Indomethacin, indomethacin]
